Laboratory results from patent publication US20230083717A1, “METHODS AND COMPOSITIONS FOR PROMOTING ADIPOCYTE BEIGING” (Flagship Pioneering Innovations VI, LLC, priority 2021, published 2023).

Tested on: UCP1
Assay: in vivo assay of induction of beige adipocytes in visceral and subcutaneous fat depots
Details: 1 mg/kg intraperitoneal, C57Bl6/J mice, vs control mice
Description: An in vivo assay of induction of beige adipocytes in visceral and subcutaneous fat depots was established using the β3-receptor agonist CL316243. 8-week old male C57Bl6/J mice were dosed with 1 mg/kg CL316243 with intraperitoneal injections, either every day for 1 week or every other day for two weeks. The vehicle was used as a negative control. Following the dosage administration, the mice were sacrificed, and epididymal (visceral) and inguinal (subcutaneous) fat was excised. The expression of UCP1 was assessed in the excised epididymal (visceral) and inguinal (subcutaneous) fat, by western blot and immunohistochemistry. […] The adipose tissue cells in epididymal (visceral) and inguinal (subcutaneous) fat from CL 316234 treated mice were also smaller compared to the cells from control mice (FIG. 3A).

C[C@H](Cc1ccc2c(c1)OC(C(=O)O)(C(=O)O)O2)NC[C@H](O)c1cccc(Cl)c1 [CL 316234]
expression of UCP1 by immunohistochemistry in epididymal (visceral) and inguinal (subcutaneous) fat: increased expression of UCP1 | expression of UCP1 by western blot in inguinal and epididymal fat: increased expression of UCP1 | size of adipose tissue cells in epididymal and inguinal fat: smaller
